Where “and” joins values, the source holds several entries; their conditions need not be identical. Equal entries are not always repeated. Where two headings read alike, the source gives them in different places.
How the values were obtained:
[1] = system: estrogen-stimulated growth of mouse uterus; format: in vivo
Procedure: An in vivo wet weight bioassay measuring inhibition of estrogen-stimulated growth of uteri was performed. The procedure of Mizejewski et al. was used for the wet weight assay (see Mizejewski, G. J. et al. (1983); Mizejewski, G. J. et al. (1986); Mizejewski, G. J. and A. S. Warner (1989); Mizejewski, G. J. et al., "Separation of the Estrogen-Activated Growth-Regulatory Forms of Alpha-Fetoprotein in Mouse Amniotic Fluid," Biol of Reprod 42:887-898 (1990); and Allen, S.H.G. et al. (1993)).
Briefly, the synthesized powdered peptide was reconstituted in saline (1 mg/ml) to form a stock solution of the GIP. The stock solution was appropriately diluted to provide dosages of 25 to 100 ng/mouse. 0.1 ml of the appropriately diluted GIP was injected intraperitoneally into 15-18 day old Nya:NYLAR female mice. Control mice were injected with saline or other peptides, including a peptide encoded by a portion of the amino acid sequence of albumin and a random 34 amino acid peptide. 1 hour after this first injection, an estrogen challenge of 0.5 micrograms of E2 in 0.1 ml saline was given to determine the change in uterine responsiveness to E2 resulting from exposure to the first injection. 23 hours after the second injection, uteri were dissected, trimmed free of connective tissue and immediately weighed. The uterine wet weights were normalized to mouse body weight (mg uterine weight/g of body weight) to compensate for differences in body weight among litters of the same age. Percent inhibition of estrogen-stimulated uterine growth was calculated as described by Mizejewski et al. (1983).
Two separate bioassays for inhibition of estrogen-stimulated growth were used. The first was an in vivo bioassay measuring an estrogen-induced increase in wet weight of the immature mouse uterus in a 24-hour determination. Dosages of peptide fragments ranged from 10 to 100 ng, and the %inhibition given in Table 6 represents the peak assay point of the dilution series.

[2] = system: hydrocortisone (HC)-stimulated growth of mouse spleen; test: In vivo wet weight bioassay, inhibition of HC-stimulated growth of the spleen; details: for Percent Growth Inhibition: immature mouse spleen
Procedure: An in vivo wet weight bioassay measuring inhibition of hydrocortisone (HC)-stimulated growth of the spleen was also performed. The procedure of Mizejewski et al. (see previous citations) was used for the wet weight assay. The applicability of the wet weight bioassay for measuring HC-stimulated growth of the spleen is disclosed by el-Fouhil, A. F. and Turkall, R. M., "Effect of alternate-day hydrocortisone therapy on the immunologically immature rat. I: Effect on blood cell count, immunoglobulin concentrations, and body and organ weights", Toxicologic Pathology 21(4):377-382 (1993).
Briefly, the synthesized powdered peptide was reconstituted in saline (1 mg/ml) to form a stock solution of the GIP. The stock solution was appropriately diluted to provide dosages of 500 ng to 100 μg/mouse. 0.1 ml of the appropriately diluted GIP was injected intraperitoneally into 15-18 day old Nya:NYLAR female mice. Control mice were injected with saline. […] 23 hours after the second injection, spleens were dissected, trimmed free of connective tissue and immediately weighed. The spleenic wet weights were normalized to mouse body weight (mg spleenic weight/g of body weight) to compensate for differences in body weight among litters of the same age. Percent inhibition of HC-stimulated spleenic growth was calculated as described by Mizejewski et al. (1983).

[3] = system: human chorionic gonadotropin (HCG)-stimulated growth of mouse ovary; test: In vivo wet weight bioassay, inhibition of HCG-stimulated growth of the ovary; details: for Percent Growth Inhibition: immature mouse ovary
Procedure: An in vivo wet weight bioassay measuring inhibition of human chorionic gonadotropin (HCG)-stimulated growth of the ovary was performed. The procedure of Mizejewski et al. (see previous citations) was used for the wet weight assay. The applicability of the wet weight bioassay for measuring HCG-stimulated growth of the ovary is disclosed by Mizejewski, G. J., "Human Chorionic Gonadotrophin: Comparative Studies of Ovarian Uptake In Mammals", Comp Biochem Physio 52A:29-34 (1975).
Briefly, the synthesized powdered peptide was reconstituted in saline (1 mg/ml) to form a stock solution of the GIP. The stock solution was appropriately diluted to provide dosages of 10ng to 100 μg/mouse. 0.1 ml of the appropriately diluted GIP was injected intraperitoneally into 15-18 day old Nya:NYLAR female mice. Control mice were injected with saline. 1 hour after this first injection, an HCG challenge of 2.8 I.U. of HCG in 0.05 ml saline was given to determine the change in ovarian responsiveness to HCG resulting from exposure to the first injection. 23 hours after the second injection, ovaries were dissected, trimmed free of connective tissue and immediately weighed. The ovarian wet weights were normalized to mouse body weight (mg ovarian weight/g of body weight) to compensate for differences in body weight among litters of the same age. Percent inhibition of HCG-stimulated ovarian growth was calculated as described by Mizejewski et al. (1983).

[4] = system: estrogen-stimulated growth of mouse uterus; format: in vivo; remark: listed apart in the source

## Leu Ser Glu Asp Lys Leu Leu Ala Cys Gly Glu Gly Ala Ala Asp Ile ile Ile Gly His Leu Cys Ile Arg His Glu Met Thr Pro Val Ash Pro Gly Val (LSEDKLLACGEGAADIIIGHLCIRHEMTPVNPGV) [GIP]
[1]; 25 to 100 ng/mouse, immature and adult mouse uterus
  inhibition of estrogen-stimulated growth (range over Table 1): 33-79%
[1]; immature mouse uterus, 25 ng per mouse i.p., E2 challenge 0.5 micrograms
  Percent Growth Inhibition: 33%
[1]; immature mouse uterus, 25 ng per mouse, added human AFP
  Percent Growth Inhibition: 42%
[1]; immature mouse uterus, 50 ng per mouse i.p., E2 challenge 0.5 micrograms
  Percent Growth Inhibition: 38% and 37% and 30-40%
[1]; immature mouse uterus, 100 ng per mouse i.p., E2 challenge 0.5 micrograms
  Percent Growth Inhibition: 35%
[1]; immature mouse uterus, peptide diluted 2,000-fold or more
  inhibition of estrogen-stimulated growth: 30-40%
[1]; mouse contains the circulating ligand (estrogen)
  dose with demonstrable activity without E2 activation prior to inoculation: 100 ng/mouse
[2]; 500 ng to 100 μg/mouse
  inhibition of HC-induced growth (range over Table 4): 24-100%
[2]; 1.0 μg per mouse
  Percent Growth Inhibition: 100%
[2]; 10.0 μg per mouse
  Percent Growth Inhibition: 76%
[2]; 100 μg per mouse, 1.0 μg of HC instead of 0.5 μg
  Percent Growth Inhibition: 24% and 34%
[2]; 100 μg per mouse, HC 0.5 micrograms
  Percent Growth Inhibition: 67%
[2]; immature spleen, produced 100% growth inhibition
  most effective dose: 1.0 μg/mouse
[3]; 10ng to 100 μg/mouse
  inhibition of HCG-induced growth (range over Table 5): 22-100%
[3]; 100 ng per mouse
  Percent Growth Inhibition: 70%
[3]; 125 ng per mouse
  Percent Growth Inhibition: 50%
[3]; 250 ng per mouse
  Percent Growth Inhibition: 56%
[3]; 500 ng per mouse
  Percent Growth Inhibition: 67%
[3]; 1 μg per mouse
  Percent Growth Inhibition: 100% and 79%
[3]; 10 μg per mouse
  Percent Growth Inhibition: 94%
[3]; 100 μg per mouse i.p., HCG 2.8 I.U.
  Percent Growth Inhibition: 22%
[3]; immature ovary, produced 100% growth inhibition
  most effective dose: 1 μg/mouse
[4]; adult cycling mice, with and without addition of purified human full-length AFP
  activity in adult cycling mice: active
[4]; adult mouse uterus, 25 ng per mouse
  Percent Growth Inhibition: 66%
[4]; adult mouse uterus, 100 ng per mouse, added human AFP
  Percent Growth Inhibition: 79%
[4]; adult mouse uterus, peptide diluted 2,000-fold or more
  inhibition of estrogen-stimulated growth: 80%

From patent US5707963A, “Methods of using growth inhibitory peptides” (Health Research, Incorporated, priority 1996, dated 1998)
